{"source": "patent US20220265618A1", "about": "“METHODS OF TREATING PROSTATE CANCER” (Celgene Quanticel Research, Inc., priority 2021, published 2022)", "key": {"VCaP cells": {"tested_on": "VCaP cells", "assay": "Proliferation assay (Cell Titer-Glo), VCaP cells", "format": "cell-based, human", "procedure": "(§1) Proliferation was measured both at Day 0 and at Day 3, and percent of growth was determined using Luciferase assay.\n(§2) Proliferation was measured both at Day 0 and at Day 6, and percent of growth was determined using Luciferase assay.\nCell culture: VCaP, LNCaP, 22Rv1, DU145 and PC3 cancer cell lines were obtained from ATCC. VCaP cells were cultured in DMEM media supplemented with 8% FBS, LNCaP cells were cultured in RPMI1640 media supplemented with 10% FBS, and PC3 cells were cultured in F12 K media supplemented with 10% FBS. LNCaP_AR CRISPRi gCTR, LNCaP_AR CRISPRi gTP53/RB1, and LNCaP_AR shTP53/RB1 cells were obtained from Charles L. Sawyers lab and were cultured in RPMI1640 supplemented with 10% FBS+2 mM L-Glutamine+1 mM Sodium Pyruvate+10 mM Hepes. DKO and TKO cells were obtained from David W. Goodrich lab and were cultured in DMEM media supplemented with 2.5% charcoal-stripped FBS+5 μg/mL of insulin/transferring/selenium (ITS)+10 μg/mL of bovine pituitary extract (BPE)+10 μg/mL of epidermal growth factor+1 μg/mL of cholera toxin. […]\nProliferation Assay: Cells were plated in a 384-well format and were allowed to adhere 24h before treatment. […] Cell proliferation was measured on the day of treatment (Day 0) and on Day 3 or Day 6 or Day 14 using Cell Titer-Glo reagent (Promega) according to the manufacturer's instructions. […]"}, "[1]": {"tested_on": "KLK3 gene expression in VCaP cells", "assay": "qPCR gene expression in VCaP cells: KLK3", "format": "cell-based, human", "settings": "400 nM, 48 h", "procedure": "(§3) KLK3, TMPRSS2,MYC and HEXIM1 genes expression was determined by qPCR."}, "PC3 cells": {"tested_on": "PC3 cells", "assay": "Proliferation assay (Cell Titer-Glo), PC3 cells", "format": "cell-based, human", "settings": "3 days (FIG. 11)", "procedure": "as §1\n(§4) Cell culture: VCaP, LNCaP, 22Rv1, DU145 and PC3 cancer cell lines were obtained from ATCC. VCaP cells were cultured in DMEM media supplemented with 8% FBS, LNCaP cells were cultured in RPMI1640 media supplemented with 10% FBS, and PC3 cells were cultured in F12 K media supplemented with 10% FBS. LNCaP_AR CRISPRi gCTR, LNCaP_AR CRISPRi gTP53/RB1, and LNCaP_AR shTP53/RB1 cells were obtained from Charles L. Sawyers lab and were cultured in RPMI1640 supplemented with 10% FBS+2 mM L-Glutamine+1 mM Sodium Pyruvate+10 mM Hepes. DKO and TKO cells were obtained from David W. Goodrich lab and were cultured in DMEM media supplemented with 2.5% charcoal-stripped FBS+5 μg/mL of insulin/transferring/selenium (ITS)+10 μg/mL of bovine pituitary extract (BPE)+10 μg/mL of epidermal growth factor+1 μg/mL of cholera toxin. DKO cells have been derived from intact mice so were cultured also in presence of 1nM R1881.\n(§5) Proliferation Assay: Cells were plated in a 384-well format and were allowed to adhere 24h before treatment. Drugs were titrated 1:3 from 10 μM to 0.1 nM with 9 doses in triplicate. Cell proliferation was measured on the day of treatment (Day 0) and on Day 3 or Day 6 or Day 14 using Cell Titer-Glo reagent (Promega) according to the manufacturer's instructions. […]"}, "[2]": {"tested_on": "TMPRSS2 gene expression in VCaP cells", "assay": "qPCR gene expression in VCaP cells: TMPRSS2", "format": "cell-based, human", "settings": "400 nM, 48 h", "procedure": "as §3"}, "[3]": {"tested_on": "DKO cells (deleted for Pten and Rb1)", "assay": "Proliferation assay (Cell Titer-Glo), DKO cells", "format": "cell-based, mouse", "procedure": "(§6) Proliferation was measured both at Day 0 and at Day 14, and percent of growth was determined using Luciferase assay.\nas §4, §5"}, "[4]": {"tested_on": "TKO cells (deleted for Pten, Rb1, and Trp53)", "assay": "Proliferation assay (Cell Titer-Glo), TKO cells", "format": "cell-based, mouse", "procedure": "as §2, §4, §5"}, "[5]": {"tested_on": "Neuroendocrine prostate cancer models", "assay": "Proliferation assay, all Neuroendocrine prostate cancer models tested (summary)", "format": "cell-based", "settings": "summary over all NEPC models", "procedure": "as §4, §5"}, "22Rv1 cells": {"tested_on": "22Rv1 cells", "assay": "Proliferation assay (Cell Titer-Glo), 22Rv1 cells", "format": "cell-based", "settings": "Homo sapiens, 22Rv1, 72 h; 3 days (FIG. 6); read-out: IC50, proliferation of 22RV.1 cells", "procedure": "as §1, §4, §5"}, "DU145 cells": {"tested_on": "DU145 cells", "assay": "Proliferation assay (Cell Titer-Glo), DU145 cells", "format": "cell-based, human", "settings": "3 days (FIG. 10)", "procedure": "as §1, §4, §5"}, "[6]": {"tested_on": "HEXIM1 gene expression in 22Rv1 cells", "assay": "qPCR gene expression in 22Rv1 cells: HEXIM1", "format": "cell-based, human", "settings": "22RV.1 cells, 400 nM, 48 hours", "procedure": "as §3"}, "[7]": {"tested_on": "TMPRSS2 gene expression in 22Rv1 cells", "assay": "qPCR gene expression in 22Rv1 cells: TMPRSS2", "format": "cell-based, human", "settings": "22RV.1 cells, 48 hours", "procedure": "as §3"}, "[8]": {"tested_on": "LNCaP_AR CRISPRi guide TP53/RB1 cells", "assay": "Proliferation assay (Cell Titer-Glo), LNCaP_AR CRISPRi TP53/RB1 cells", "format": "cell-based, human", "procedure": "as §6, §4\n(§7) Proliferation Assay: Cells were plated in a 384-well format and were allowed to adhere 24h before treatment. Drugs were titrated 1:3 from 10 μM to […] with 9 doses in triplicate. Cell proliferation was measured on the day of treatment (Day 0) and on Day 3 or Day 6 or Day 14 using Cell Titer-Glo reagent (Promega) according to the manufacturer's instructions. Cell growth normalized to the DMSO vehicle control and to Day 0 was fitted by nonlinear regression using GraphPad Prism 7.03 (GraphPad Software, Inc.)."}, "[9]": {"tested_on": "KLK3 gene expression in 22Rv1 cells", "assay": "qPCR gene expression in 22Rv1 cells: KLK3", "format": "cell-based, human", "settings": "22RV.1 cells, 48 hours", "procedure": "as §3"}, "[10]": {"tested_on": "MYC gene expression in 22Rv1 cells", "assay": "qPCR gene expression in 22Rv1 cells: MYC", "format": "cell-based, human", "settings": "22RV.1 cells, 48 hours", "procedure": "as §3"}, "[11]": {"tested_on": "LNCaP cells overexpressing AR (LNCaP_AR)", "assay": "Proliferation assay (Cell Titer-Glo), LNCaP_AR cells", "format": "cell-based, human", "procedure": "as §1, §2, §6, §4, §7"}, "[12]": {"tested_on": "MYC gene expression in VCaP cells", "assay": "qPCR gene expression in VCaP cells: MYC", "format": "cell-based, human", "settings": "48 h", "procedure": "as §3"}, "[13]": {"tested_on": "LNCaP_AR shTP53/RB1 cells", "assay": "Proliferation assay (Cell Titer-Glo), LNCaP_AR shTP53/RB1 cells", "format": "cell-based, human", "procedure": "as §6, §4, §7"}, "[14]": {"tested_on": "HEXIM1 gene expression in VCaP cells", "assay": "qPCR gene expression in VCaP cells: HEXIM1", "format": "cell-based, human", "settings": "48 h", "procedure": "as §3"}, "LNCaP cells": {"tested_on": "LNCaP cells", "assay": "Proliferation assay (Cell Titer-Glo), LNCaP cells", "format": "cell-based, human", "procedure": "as §1, §2, §4, §7"}}}
{"compound": "Cn1cc(-c2cc(S(C)(=O)=O)ccc2OCC2CC2)c2ccccc2c1=O", "note": "[Compound A, 4-[2-(cyclopropylmethoxy)-5-methylsulfonylphenyl]-2-methylisoquinolin-1-one]", "values": [{"measurement": "growth arrest of VCaP cell proliferation", "setting": "VCaP cells; at 0.3 μM Compound A, 3 and 6 days (FIGS. 1A-1B)", "value": 100, "unit": "%"}, {"measurement": "cytotoxic effects in VCaP cells", "setting": "VCaP cells; at the highest concentration (FIGS. 1A-1B)", "value": "cytotoxic effects"}, {"measurement": "KLK3 downregulation as compared to DMSO", "setting": "[1]", "value": 80.2, "unit": "%"}, {"measurement": "reduction of PC3 proliferation", "setting": "PC3 cells", "value": 80, "unit": "%"}, {"measurement": "IC50", "setting": "PC3 cells; Homo sapiens, PC-3, 72 h", "value": 550, "unit": "nM"}, {"measurement": "TMPRSS2 downregulation as compared to DMSO", "setting": "[2]", "value": 26.3, "unit": "%"}, {"measurement": "growth arrest of DKO cells", "setting": "[3]; at 1 uM, treated Day 0 and Day 6, total 14 days (FIG. 9B)", "value": 100, "unit": "%"}, {"measurement": "cytotoxic activity in DKO cells", "setting": "[3]; at the highest concentrations (FIG. 9B)", "value": "cytotoxic activity"}, {"measurement": "growth arrest of TKO cells", "setting": "[4]; at 3 uM, treated Day 0 and Day 3, total 6 days (FIG. 9A)", "value": 100, "unit": "%"}, {"measurement": "cytotoxic activity in TKO cells", "setting": "[4]; at the highest concentrations (FIG. 9A)", "value": "cytotoxic activity"}, {"measurement": "reduction of cell proliferation in all Neuroendocrine prostate cancer models tested", "setting": "[5]", "value": "> 76", "unit": "%"}, {"measurement": "IC50", "setting": "22Rv1 cells", "value": 200, "unit": "nM"}, {"measurement": "reduction of DU145 proliferation", "setting": "DU145 cells", "value": 76, "unit": "%"}, {"measurement": "IC50", "setting": "DU145 cells; Homo sapiens, DU-145, 72 h", "value": 680, "unit": "nM"}, {"measurement": "HEXIM1 induction", "setting": "[6]", "value": 31, "unit": "%"}, {"measurement": "TMPRSS2 reduction", "setting": "[7]; 40 nM", "value": 93.2, "unit": "%"}, {"measurement": "TMPRSS2 reduction", "setting": "[7]; 400 nM", "value": 95.3, "unit": "%"}, {"measurement": "IC50", "setting": "[8]; Homo sapiens, LNCaP/AR, treated Day 0 and Day 6, total 14 days (FIG. 8A)", "value": 220, "unit": "nM"}, {"measurement": "cell death in LNCaP_AR cells depleted for TP53 and RB1 (CRISPRi)", "setting": "[8]; summary statement", "value": "induced cell death"}, {"measurement": "growth arrest of LNCaP_AR CRISPRi guide TP53/RB1 cells", "setting": "[8]; treated Day 0 and Day 6, total 14 days (FIG. 8A)", "value": 100, "unit": "%"}, {"measurement": "KLK3 downregulation", "setting": "[9]; 40 nM", "value": 98.8, "unit": "%"}, {"measurement": "KLK3 downregulation", "setting": "[9]; 400 nM", "value": 99.51, "unit": "%"}, {"measurement": "MYC downregulation", "setting": "[10]; 40 nM", "value": 64, "unit": "%"}, {"measurement": "MYC downregulation", "setting": "[10]; 400 nM", "value": 93.9, "unit": "%"}, {"measurement": "growth arrest of LNCaP_AR cells", "setting": "[11]; 3 days (FIG. 4A)", "value": "complete growth arrest"}, {"measurement": "cytotoxicity in LNCaP_AR cells", "setting": "[11]; highest dose, longer treatment (6 days, FIG. 4B)", "value": "cytotoxicity"}, {"measurement": "concentration causing cell death in LNCaP_AR cells on re-treatment", "setting": "[11]; treated Day 0 and Day 6, total 14 days (FIG. 5)", "value": "> 1", "unit": "µM"}, {"measurement": "reduction in MYC expression", "setting": "[12]; 40 nM", "value": 18.9, "unit": "%"}, {"measurement": "MYC downregulation", "setting": "[12]; 400 nM", "value": 81.1, "unit": "%"}, {"measurement": "IC50", "setting": "[13]; Homo sapiens, LNCaP/AR, treated Day 0 and Day 6, total 14 days (FIG. 8B)", "value": 60, "unit": "nM"}, {"measurement": "cell death in LNCaP_AR cells depleted for TP53 and RB1 (shRNA)", "setting": "[13]; summary statement", "value": "induced cell death"}, {"measurement": "growth arrest of LNCaP_AR shTP53/RB1 cells", "setting": "[13]; treated Day 0 and Day 6, total 14 days (FIG. 8B)", "value": 100, "unit": "%"}, {"measurement": "HEXIM1 upregulation as compared to DMSO", "setting": "[14]; 40 nM", "value": 121.1, "unit": "%"}, {"measurement": "HEXIM1 upregulation as compared to DMSO", "setting": "[14]; 400 nM", "value": 754, "unit": "%"}, {"measurement": "IC50", "setting": "LNCaP cells; Homo sapiens, LNCaP, 144 h, prolonged treatment (6 days) (FIG. 3B), read-out: half maximal inhibitory concentration (IC50), LNCaP cells", "value": 490, "unit": "nM"}, {"measurement": "growth arrest of LNCaP cells", "setting": "LNCaP cells; after 3 days of treatment (FIG. 3A)", "value": 100, "unit": "%"}, {"measurement": "cell death in LNCaP cells", "setting": "LNCaP cells; prolonged treatment (6 days)", "value": "induced cell death"}]}
